Patent publication US6245758A, “Methods of use for peroxynitrite decomposition catalysts, pharmaceutical compositions therefor” (priority 1996, dated 2001)

How the values were obtained:
rat jejunum = assay: Intestinal vascular permeability (radiolabelled albumin leakage) after endotoxin (LPS); assay type: in vivo; settings: 30 mg/kg, i.v, 3 h after LPS; determined 1 h later
Method: FIG. 10 . Effects of FeTMPS, FeTMPyP or ZnTMPyP (30 mg/kg, i.v bolus) administered 3 h after challenge with E. coli lipopolysaccharide (LPS, 3 mg/kg, i.v bolus) on the increase in leakage of radio-labelled albumin (plasma extravasation, μl/g tissue) observed 1 h later (e.g 4 h after LPS challenge) in the rat jejunum. Results are shown as mean±s.e.m of 4-8 rats.
Intestinal vascular permeability was determined as the leakage into the jejunal tissue of [^125 I]-labelled bovine serum albumin ([^125 ]-BSA) administered intravenously (0.5 ml; 0.5 μCi) together with either LPS (3 mg/kg, serotype O111:B4) or isotonic saline. At 4 h after LPS administration, segments of jejunal tissue were ligated and removed. The intestinal tissues were rapidly washed, blotted dry and weighed. Blood (0.5 ml) was collected into tubes containing tri-sodium citrate (0.318% final concentration) and plasma prepared by centrifugation (10,000 g×10 min). The {^125 I]-BSA content in segments of whole tissue and in aliquots of plasma (100 μl) was determined in a gamma counter. The total content of plasma in the intestinal tissues was expressed as μl/g tissue. Changes in intravascular volume in the intestinal tissue was determined in an additional group of rats by administering ([^125 I]-BSA) intravenously 2 min before removal of the jejunum. The tissue and plasma content of radiolabel was determined and intravascular volume expressed as μl/g tissue. This value was substracted from that obtained in the plasma leakage studies to obtain a measure of the intestinal plasma albumin leakage. After LPS administration (4 h), there was a significant (P<0.01) increase in the plasma leakage (from 77±10 to 224±18 μl/g tissue, n=8).

CuZnSOD = assay: Protection of CuZnSOD from inactivation by peroxynitrite using peroxynitrite decomposition catalysts; assay type: biochemical, bovine; settings: Fe(III)TMPyP 0.5 and 1.0 uM, Fe(III)TMPS 1.0 and 5.0 uM; peroxynitrite 0-100 uM
Method: Assay solutions were prepared as described above except for the addition of various of peroxynitrite decomposition catalyst. The final solution volume was maintained at 10 mL. Thus, to the assay solutions Fe(III)TMPyP (0.5 and 1.0 uM final concentration) and Fe(III)TMPS (1.0 and 5.0 uM final concentration) was added. The solution were then treated with various amounts of peroxynitrite such that the final concentrations of 0,25, 50, 75 and 100 uM were achieved. Following treatment with peroxynitrite EDTA was added to a final concentration of 250 uM. The solutions were then assayed for SOD activity.

[1] = Catalysis of dismutation of superoxide; settings: under the assay conditions employed
[2] = Stopped-flow kinetic analysis of catalytic decomposition of peroxynitrite by metal complexes; settings: pH = 7.4, 22° C.
Method: To screen metal complexes for peroxynitrite decomposition catalytic activity of the present invention, peroxynitrite is prepared and isolated as its sodium salt by the reaction of acidic hydrogen peroxide with sodium nitrite followed by rapid quenching with NaOH as set out by Halfpenny and Robinson, in J. Chem. So., 1952, 928-938. Peroxynitrite has an absorbance maximum at 302 nm with an extinction coefficient of 1670 M^-1 cm^-1. Therefore, it is possible to directly observe the decomposition of peroxynitrite by stop-flow spectrophotometric analysis by monitoring the decomposition of the absorbance at 302 nm. That is, such observation of the decomposition of peroxynitrite at a rate accelerated over the natural decomposition rate with the addition of the metal complex identifies a compound of the present invention.
Kinetic measurements were made on an OLIS Rapid Scanning Stopped-Flow Spectrometer (On-Line Instrument Systems Inc., Bogart, Ga.)) using the OLISRSM-1000 Operating system for data acquisition and manipulation.
Thus, in a typical experiment the natural background decomposition rate of sodium peroxynitrite was determined as follows. A 24 mM stock solution of sodium peroxynitrite in 50 mM NaOH is load into the small volume syringe and 100 mM potassium phosphate pH=7.4 is charged into the large volume syringe of the stopped-flow spectrophotometer. All stopped -flow measurements were made at 22 ° C. Injection of the solutions into the sample compartment results in ~25 fold dilution of the stock sodium peroxynitrite. […] To test for catalytic peroxynitrite decomposition activity, the metal complex was dissolved in 100 mM potassium phosphate buffer pH=7.4 and loaded into the large syringe and the decomposition of peroxynitrite was monitored as described above. The catalytic rate constant (kcat M-1 sec^-1) for the complexes tested was determined by varying the complex concentration and plotting kobs vs [complex] Table 1. The kobs were obtained from averages of three stopped flow analysis at each catalyst concentration.

[3] = system: carrageenan-induced paw edema; assay: Carrageenan-induced paw edema; assay type: in vivo, rat
Source text: Carrageenan-induced paw edema. The effects of peroxynitrite catalysts in vivo were initially tested on the carrageenan-induced paw edema. The choice of using this in vivo model of inflammation was based on the knowledge that 1) the inflammatory response is blocked by NOS inhibitors and 2) by superoxide dismutase (SOD). This indicates the participation of both NO and of O2-. Male Sprague Dawley rats were purchased from Harlan Sprague-Dawley (Indianapolis, Ind.). Male Sprague Dawley rats (175-200 g) received a subplantar injection in the right hind paw of carrageenan (0.1 ml of a 1% suspension in 0.85% saline). Paw volume was measured by a plethysmometer immediately before the injection of carrageenan and then at hourly intervals from 1 to 6 h. Edema was expressed as the increase in paw volume (in ml) measured after carrageenan injection compared to the pre-injection value for individual animals.

[4] = 3 mg/kg i.v., 1 h post carrageenan
[5] = 3 mg/kg i.v., 2 h post carrageenan
[6] = 3 mg/kg i.v., 3 h post carrageenan
[7] = 3 mg/kg i.v., 4 h post carrageenan
[8] = 3 mg/kg i.v., 5 h post carrageenan
[9] = 3 mg/kg i.v., 6 h post carrageenan
[10] = 10 mg/kg i.v., 1 h post carrageenan
[11] = 10 mg/kg i.v., 2 h post carrageenan
[12] = 10 mg/kg i.v., 3 h post carrageenan
[13] = 10 mg/kg i.v., 4 h post carrageenan
[14] = 10 mg/kg i.v., 5 h post carrageenan
[15] = 10 mg/kg i.v., 6 h post carrageenan
[16] = 30 mg/kg i.v., 1 h post carrageenan
[17] = 30 mg/kg i.v., 2 h post carrageenan
[18] = 30 mg/kg i.v., 3 h post carrageenan
[19] = 30 mg/kg i.v., 4 h post carrageenan
[20] = 30 mg/kg i.v., 5 h post carrageenan
[21] = 30 mg/kg i.v., 6 h post carrageenan

| Structure (SMILES) | radiolabelled albumin leakage (rat jejunum) | protection of CuZnSOD against inactivation by peroxynitrite (CuZnSOD) | catalysis of the dismutation of superoxide [1] | kcat, catalytic rate constant for the decomposition of sodium peroxynitrite [2] | % Inhibition of Paw Edema [3, 4] | % Inhibition of Paw Edema [3, 5] | % Inhibition of Paw Edema [3, 6] | % Inhibition of Paw Edema [3, 7] | % Inhibition of Paw Edema [3, 8] | % Inhibition of Paw Edema [3, 9] | % Inhibition of Paw Edema [3, 10] | % Inhibition of Paw Edema [3, 11] | % Inhibition of Paw Edema [3, 12] | % Inhibition of Paw Edema [3, 13] | % Inhibition of Paw Edema [3, 14] | % Inhibition of Paw Edema [3, 15] | % Inhibition of Paw Edema [3, 16] | % Inhibition of Paw Edema [3, 17] | % Inhibition of Paw Edema [3, 18] | % Inhibition of Paw Edema [3, 19] | further results |
| --- | --- | --- | --- | --- | --- | --- | --- | --- | --- | --- | --- | --- | --- | --- | --- | --- | --- | --- | --- | --- | --- |
| CC(=O)[O-].Cc1c(-c2c3nc(c(-c4c(C)c(S(=O)(=O)[O-])c(C)c(S(=O)(=O)[O-])c4C)c4ccc([n-]4)c(-c4c(C)c(S(=O)(=O)[O-])c(C)c(S(=O)(=O)[O-])c4C)c4nc(c(-c5c(C)c(S(=O)(=O)[O-])c(C)c(S(=O)(=O)[O-])c5C)c5ccc2[n-]5)C=C4)C=C3)c(C)c(S(=O)(=O)[O-])c(C)c1S(=O)(=O)[O-].[Fe+3].[Na+].[Na+].[Na+].[Na+].[Na+].[Na+].[Na+].[Na+] [Fe(III)TMPS, Acetato-5,10,15,20-tetrakis(3,5-disulfonatomesityl)porphyrin Iron (III) octasodium salt] | caused a reduction in radiolabelled albumin leakage | concentration dependant protection of CuZnSOD against inactivation by peroxynitrite | not to be effective catalysts for the dismutation of superoxide | 160000 M⁻¹ s⁻¹ | 0% | 42% | 47% | 47% | 33% | 33% | 0% | 61% | 60% | 53% | 53% | 47% | 0% | 85% | 80% | 80% | % Inhibition of Paw Edema [3, 20]: 80%; % Inhibition of Paw Edema [3, 21]: 81% |
| CC(=O)[O-].C[n+]1ccc(-c2c3nc(c(-c4cc[n+](C)cc4)c4ccc([n-]4)c(-c4cc[n+](C)cc4)c4nc(c(-c5cc[n+](C)cc5)c5ccc2[n-]5)C=C4)C=C3)cc1.Cc1ccc(S(=O)(=O)[O-])cc1.Cc1ccc(S(=O)(=O)[O-])cc1.Cc1ccc(S(=O)(=O)[O-])cc1.Cc1ccc(S(=O)(=O)[O-])cc1.[Fe+3] [Fe(III)TMPyP, Acetato (5,10,15,20-tetrakis(N-methyl-4-pyridyl)porphinato) iron (III) tetra-tosylate] | caused a reduction in radiolabelled albumin leakage | concentration dependant protection of CuZnSOD against inactivation by peroxynitrite | not to be effective catalysts for the dismutation of superoxide | 2.75e+06 M⁻¹ s⁻¹ | 0% | 9% | 10% | 17% | 6% | 0% | 6% | 13% | 11% | 28% | 21% | 2% | 0% | 44% | 43% | 50% | % Inhibition of Paw Edema [3, 20]: 32%; % Inhibition of Paw Edema [3, 21]: 32% |
